# Measured values as given in patent US20100004187A1 (priority 2008, published 2010).
# Where two headings read alike, the source gives them in different places.
# Tests used:
# [1] = molecular target: CorA of Methanococcus jannaschii (Methanocaldococcus jannaschii, UniProt Q58439); settings: cited from earlier work
# [2] = tested on: S. typhimurium strain in which CorA was the only functional Mg2+ transporter; settings: cited from earlier work
# [3] = molecular target: TolC (E. coli) (Escherichia coli, UniProt P02930); settings: isothermal titration calorimetry; cited from earlier work
# Chain of TolC (E. coli) (P02930 23-493): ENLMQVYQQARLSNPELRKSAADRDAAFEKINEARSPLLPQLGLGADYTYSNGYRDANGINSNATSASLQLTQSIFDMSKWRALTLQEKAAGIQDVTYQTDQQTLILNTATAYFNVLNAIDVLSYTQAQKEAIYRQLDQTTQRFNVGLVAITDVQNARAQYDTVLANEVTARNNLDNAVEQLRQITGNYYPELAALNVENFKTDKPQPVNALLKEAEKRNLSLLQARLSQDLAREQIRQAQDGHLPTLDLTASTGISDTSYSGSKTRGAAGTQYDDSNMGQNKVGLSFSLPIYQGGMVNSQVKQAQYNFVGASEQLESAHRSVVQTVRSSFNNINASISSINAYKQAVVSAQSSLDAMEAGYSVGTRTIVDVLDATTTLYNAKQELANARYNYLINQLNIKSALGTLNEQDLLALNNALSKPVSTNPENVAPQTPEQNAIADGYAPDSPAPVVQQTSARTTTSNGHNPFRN
# [4] = mouse, in vivo
# [5] = tested on: Francisella tularensis subspecies Novicida; format: cell-based
# [6] = tested on: BHK cells
# [7] = tested on: bacterial growth; settings: cited from earlier work
# [8] = tested on: bacterial growth; format: cell-based
# [9] = tested on: lawn of E. coli; format: cell-based; settings: 1.0 tet/0.78 Cohex and 2.0 tet/1.6 mg Cohex disk pairings, overnight at 37° C.
# [10] = molecular target: CorA of Salmonella typhimurium (Salmonella typhimurium, UniProt P0A2R8); settings: cited from earlier work
# Chain of CorA of Salmonella typhimurium (P0A2R8 whole entry): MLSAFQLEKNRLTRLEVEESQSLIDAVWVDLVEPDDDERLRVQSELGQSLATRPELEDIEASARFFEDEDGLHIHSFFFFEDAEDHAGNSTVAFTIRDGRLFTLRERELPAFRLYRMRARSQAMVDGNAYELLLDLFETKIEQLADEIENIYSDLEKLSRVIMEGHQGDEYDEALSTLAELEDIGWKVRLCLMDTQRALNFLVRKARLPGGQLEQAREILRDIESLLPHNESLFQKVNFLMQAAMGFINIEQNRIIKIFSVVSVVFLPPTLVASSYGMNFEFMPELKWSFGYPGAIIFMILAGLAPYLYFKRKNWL
# [11] = molecular target: MgtB Mg transporter (Salmonella typhimurium, UniProt P22036); settings: cited from earlier work
# Chain of MgtB Mg transporter (P22036 whole entry): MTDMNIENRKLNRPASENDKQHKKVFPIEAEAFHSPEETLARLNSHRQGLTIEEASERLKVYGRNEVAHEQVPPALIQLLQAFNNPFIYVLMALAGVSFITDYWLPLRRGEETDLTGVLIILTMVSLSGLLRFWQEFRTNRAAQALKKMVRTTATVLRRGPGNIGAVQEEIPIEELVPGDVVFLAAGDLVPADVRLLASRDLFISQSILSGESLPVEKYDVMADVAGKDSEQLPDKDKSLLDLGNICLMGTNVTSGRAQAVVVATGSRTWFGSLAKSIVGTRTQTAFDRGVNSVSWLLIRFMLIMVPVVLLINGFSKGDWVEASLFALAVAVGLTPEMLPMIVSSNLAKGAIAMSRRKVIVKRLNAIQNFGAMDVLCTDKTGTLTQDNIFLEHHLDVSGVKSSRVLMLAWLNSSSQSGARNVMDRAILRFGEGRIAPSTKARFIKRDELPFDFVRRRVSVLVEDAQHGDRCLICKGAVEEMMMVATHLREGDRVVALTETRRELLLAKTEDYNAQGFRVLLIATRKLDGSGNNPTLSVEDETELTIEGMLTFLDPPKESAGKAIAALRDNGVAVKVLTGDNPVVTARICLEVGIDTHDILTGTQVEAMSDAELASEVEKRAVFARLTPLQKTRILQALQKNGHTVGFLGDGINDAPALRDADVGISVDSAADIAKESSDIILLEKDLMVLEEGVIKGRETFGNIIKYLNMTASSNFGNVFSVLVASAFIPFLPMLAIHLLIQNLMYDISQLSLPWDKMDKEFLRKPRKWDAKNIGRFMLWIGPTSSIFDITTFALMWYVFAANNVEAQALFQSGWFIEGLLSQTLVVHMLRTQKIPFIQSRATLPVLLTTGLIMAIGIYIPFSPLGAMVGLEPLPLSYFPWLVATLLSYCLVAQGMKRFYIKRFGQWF
# [12] = tested on: Francisella philomiragia; format: cell-based
# Chain of CorA of Methanococcus jannaschii (Q58439 whole entry): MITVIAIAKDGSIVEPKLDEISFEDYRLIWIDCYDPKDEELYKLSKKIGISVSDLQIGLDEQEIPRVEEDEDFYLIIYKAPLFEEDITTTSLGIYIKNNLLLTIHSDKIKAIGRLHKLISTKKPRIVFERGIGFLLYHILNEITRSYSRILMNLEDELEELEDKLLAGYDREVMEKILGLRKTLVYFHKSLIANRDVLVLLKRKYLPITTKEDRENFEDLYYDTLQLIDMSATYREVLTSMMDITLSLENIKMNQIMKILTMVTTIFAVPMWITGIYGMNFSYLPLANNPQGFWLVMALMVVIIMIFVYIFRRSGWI
substance,measurement,setting,value
hexamminecobalt (III) chloride [Cohex],inhibition of 63Ni2+ uptake,[1],inhibited
same,inhibition of growth,[2],inhibited the growth
same,Cohex ions bound per trimeric TolC,[3],~1
same,toxicity to mice,[4],not to be highly toxic
same,kind of inhibition of the bacterial growth,[5],bacteriostatic rather than bacteriocidal
same,CC50,[6],~3200 µM
same,effect on bacterial growth,[7],prevents bacterial growth at micromolar concentrations
same,effect of the presence of Cohex on potency of the antibiotic drugs,[8],increased the potency of the drugs up to about an order of magnitude
same,effect on bacterial growth,[8],no effect on bacterial growth
same,"zone of inhibition, interaction with tetracycline",[9],synergistic effect
same,inhibition of 63Ni2+ uptake,[10],inhibited
same,Ki,"[10]; corresponding to the IC50, species not given",0.5 µM
same,inhibition of alternate pathways of Mg2+ transport,[11],does not inhibit
same,kind of inhibition of the bacterial growth,[12],bacteriostatic rather than bacteriocidal
